Assay results taken from patent publication US20050233403A1, “Human adipocyte cell populations and methods for identifying modulators of same” (AdipoGenix, Inc., priority 2002, published 2005).
Read-outs that look alike come from different tables or passages of the source.

Key:
3T3-L1 cells [1] = assay: Fluorescent fatty acid uptake by 3T3-L1 cells, 96-well format; format: cell-based; details: for Uptake by 3T3-L1 cells, Day 9 / Uptake by 3T3-L1 cells, Day 0: 10 μM dye, one hour, means ± SEM; for Uptake by 3T3-L1 cells, Day 9: cells 9 days in differentiation medium; for Uptake by 3T3-L1 cells, Day 0: cells not incubated in differentiation medium; for Fatty acid uptake, Fluor. Units: dye 120 minutes
Description: To establish a rapid, 96 well format, automated assay of fatty acid uptake, the reproducibility and signal-to-noise ratios of four different fatty acid-fluorescent dye conjugates in undifferentiated and differentiated preadipocytes was determined. 3T3-L1 cells were used to compare the fluorescent dyes, the best of which was then selected for the human preadipocyte system. The fluorescent fatty acids tested were
These fatty acid-dye conjugates were chosen because their final size is close to that of physiologically relevant C:18 fatty acids, the most abundant in human fat cells and in the diet (Kokatnur, M., et al.(1979) Am. J. Clin. Nutr. 32:2198-205; Llado, I., et al. (1996) Biochem. Mol. Biol. Int. 40:295-303)). Furthermore, these dyes are vital, allowing the cells to be re-used in additional assays. 3T3-L1 cells were seeded in the wells of a 96-well plate at a density of 3.3×10^3 cells/cm^2 (1×10^3 cells/well). After reaching confluence, cells were exposed to differentiation medium for 0 and 9 days. The wells were washed with assay buffer (150 mM […], 10 mM NaPO4; 3 mM KCl; 10 μM CaCl2; 1 mM MgCl2; 25 mM glucose; pH 7.4) containing 20 μM fatty acid-free BSA, pre-warmed to 37° C. The fluorescent fatty acids were added in assay buffer to a final concentration of 10 μM, and incubated at 37° C. for one hour. Wells were washed with assay buffer containing 0.1% BSA.
Table 15 indicates the results of experiments in which 3T3-L1 cells were exposed to a differentiation inducing medium from day 0. Fatty acid uptake was assayed by exposing cells to BODPY for 120 minutes at each of the times represented.

[2] = system: differentiating adipocytes
Description: The assay features differentiated human preadipocytes, but the procedure can be modified in a number of ways to discover novel compounds affecting the adipocytes of human and other species (i.e., rodent). For example, the day of compound addition during preadipocyte differentiation process can be changed as well as the incubation period. Similarly, the day of FA* addition, its type of fluorescent label and chain length, and its concentration and incubation time can be modified. • B. Up to five cell strains of frozen primary human subcutaneous preadipocytes (e.g., subcutaneous preadipocytes) are used, but this number can be increased as needed. Omental and mesenteric preadipocytes can be used in a similar manner. Cells are 10 thawed in PM and grown in tissue culture flasks under standard incubation conditions (5% carbon dioxide, 37° C.). Cells are passaged 1:2 upon 80-100% confluency. Cells are passaged up to ten times to produce enough cells for primary screening. • C. […] Cellular fluorescence of triglyceride droplets that have incorporated FA* is measured on a microplate reader. Efficacy of compounds on inhibiting FA* accumulation is determined by: % Efficacy=100−(sample fluorescence/negative control fluorescence×100). • H. Subsequent determination of compound toxicity on cells is measured by incubating cells (after the post-wash and FA* reading) with an aliquot of Alamar Blue (catalog # DAL-1100, BioSource International), a fluorescent dye that is reduced via cellular metabolism. After incubation of cells with the dye for up to four hours, fluorescence of the reduced compound is read. Alternatively, compound toxicity on cells can be determined in an experiment separate from the primary screen uptake/accumulation assay. Toxicity of compounds is determined by: % Toxicity =100−(sample fluorescence/negative control fluorescence×100).
Subsequent determination of compound toxicity is measured by incubating cells with one tenth of total cell volume of Alamar Blue (an indicator of cellular metabolism) for up to four hours before measuring fluorescence of the reduced compound. […]

[3] = system: human subcutaneous adipocytes; assay: cells; details: Adipocyte, read-out: % Efficacy (inhibition of FA* accumulation)
Description: (§2) Cells are 10 thawed in PM and grown in tissue culture flasks under standard incubation conditions (5% carbon dioxide, 37° C.). Cells are passaged 1:2 upon 80-100% confluency. Cells are passaged up to ten times to produce enough cells for primary screening. • C. Cells are seeded and differentiated, as described in the previous section, in 384-well plates. • D. On day 6 of preadipocyte differentiation, the DM is first changed as described in the previous section. Cells are then incubated in a replicate manner (i.e., in triplicate) with compounds. […] Compounds are further diluted in a PBS or similarly buffered solution in the absence or presence of albumin to aid compound solubility. […] Positive control cells are treated with a compound or reagent known to modulate their ability to take up and/or accumulate fatty acids. […] The FA* currently used is 4,4-difluoro-5-methyl-4-bora-3a,4a-diaza-s-indacene-3-dodecanoic acid (C1-BODIPY® 500/510 C12, catalog # D-3823, Molecular Probes, Eugene, Oreg.). […] Cells are incubated for four hours at 5% carbon dioxide/37° C., then post-washed with FAB, preferably three times, to remove unincorporated FA*. Cellular fluorescence of triglyceride droplets that have incorporated FA* is measured on a microplate reader. Efficacy of compounds on inhibiting FA* accumulation is determined by: % Efficacy=100−(sample fluorescence/negative control fluorescence×100). • H. Subsequent determination of compound toxicity on cells is measured by incubating cells (after the post-wash and FA* reading) with an aliquot of Alamar Blue (catalog # DAL-1100, BioSource International), a fluorescent dye that is reduced via cellular metabolism. After incubation of cells with the dye for up to four hours, fluorescence of the reduced compound is read. Alternatively, compound toxicity on cells can be determined in an experiment separate from the primary screen uptake/accumulation assay. Toxicity of compounds is determined by: % Toxicity =100−(sample fluorescence/negative control fluorescence×100).
(§3) Primary screens for inhibition of fatty acid uptake are carried out using human subcutaneous preadipocytes in each of two assay formats. In a first assay format, cells are exposed to natural product and synthetic library components early in the differentiation process (days 1-3 following addition of differentiation medium). In a second assay format, cells are exposed to library components late in the process (days 7-10 following addition of differentiation medium), after at least 80% of cells have differentiated.
(§4) Subcutaneous human preadipocytes (passage 3-5) are seeded in plating medium at 3.0×10^4 cells/cm^2 in 96-well or 384-well plates, giving 100% confluence upon adherence. […]

[4] = system: human subcutaneous adipocytes; details: positive control
Description: as §2, §3, §4

human preadipocytes [5] = assay: Fatty acid uptake by human preadipocytes exposed to differentiation medium (fatty acid-based cellulomic assay); format: cell-based; details: 10 d, relative to control medium, means of 4 studies
Description: The following example describes the optimization of methods used to differentiate human preadipocytes. The example details a thorough analyses of known and potential agents and conditions for promoting human preadipocyte differentiation. Experiments were performed with abdominal subcutaneous as well as mesenteric and omental preadipocytes. A variety of conditions were tested using the fatty acid-based cellulomic assay described in Example 4. Optimization of differentiation conditions enhances the usefulness of human preadipocytes in screening for modulators (e.g., inhibitors) of obesity.
(§1) The fatty acid uptake ratio was expressed as a function of fatty acid uptake in control medium. % Diff. represents the proportion of cells that developed doubly refractile lipid droplets visible by phase contrast microscopy by observers unaware of culture conditions. Means of 4 studies are shown. CoV was also determined (not shown) to monitor assay reliability.

human preadipocytes [6] = assay: Extent of differentiation: % cells with doubly refractile lipid droplets by phase contrast microscopy; format: cell-based; details: 10 d
Description: as §1

3T3-L1 cells [7] = assay: Fluorescent fatty acid uptake by 3T3-L1 cells, 96-well format; format: cell-based; details: for BODIPY uptake, Day 0 / BODIPY uptake, Day 8: 10 μM
[8] = Dex 10^−4 M in suboptimal differentiation medium
[9] = Dex 10^−7 M in suboptimal differentiation medium
[10] = Dex 10^−10 M in suboptimal differentiation medium

For `CCCCCCC(C/C=C\CCCCCCCC(=O)O)OC(=O)c1c2ccccc2cc2ccccc12` (stereo not drawn) [12-AO, 12-(9-anthroyloxy) oleic acid], the “Uptake by 3T3-L1 cells, Day 9” value (3T3-L1 cells [1]) was 10960 ± 1172 Raw Fluorescent Units and the “Uptake by 3T3-L1 cells, Day 0” value (3T3-L1 cells [1]) was 3613 ± 160 Raw Fluorescent Units.
For `N#CC(C#N)=NNc1ccc(OC(F)(F)F)cc1` [FCCP, carbonyl cyanide p-(trifluoromethoxy)-phenylhydrazone], the “% Toxicity” value ([2]; 0.3 μM) was −1%, the “% Toxicity” value ([2]; 1 μM) was −4% and the “% Toxicity” value ([2]; 3 μM) was 5%. For the same compound, the Emax at 0.3 µM [3] was 42%, the Emax at 1 µM [3] was 79% and the Emax at 3 µM [3] was 90%. The “FA* uptake and/or accumulation” value [4] was “inhibits FA* uptake and/or accumulation in a dose-responsive manner”.
`O=C(O)CCCCCCCCCCCCCCCOC(=O)c1c2ccccc2cc2ccccc12` [16-AP, 16-(9-anthroyloxy) palmitic acid] was tested, and the “Uptake by 3T3-L1 cells, Day 9” value (3T3-L1 cells [1]) was 8528 ± 20 Raw Fluorescent Units and the “Uptake by 3T3-L1 cells, Day 0” value (3T3-L1 cells [1]) was 2944 ± 404 Raw Fluorescent Units.
`C[C@@H]1C[C@H]2[C@@H]3CCC4=CC(=O)C=C[C@]4(C)[C@@]3(F)[C@@H](O)C[C@]2(C)[C@@]1(O)C(=O)CO` [Dex, dexamethasone] was tested, and the “Uptake Ratio” value (human preadipocytes [5]; [8]) was 5, the “Uptake Ratio” value (human preadipocytes [5]; [9]) was 79 and the “Uptake Ratio” value (human preadipocytes [5]; [10]) was 49. The “% Diff.” value (human preadipocytes [6]; [8]) was 30%, the “% Diff.” value (human preadipocytes [6]; [9]) was 70% and the “% Diff.” value (human preadipocytes [6]; [10]) was 60%.
With `CC1=[N+]2C(=Cc3ccc(CCCCCCCCCCCC(=O)O)n3[B-]2(F)F)C=C1` [BODIPY 500/510 C12, 4,4-difluoro-5-methyl-4-bora-3a,4a-diaza-s-indacene-3-dodecanoic acid] the “BODIPY uptake, Day 0” value (3T3-L1 cells [7]; incubation 10 min) was 1290.263 rfu, the “BODIPY uptake, Day 8” value (3T3-L1 cells [7]; incubation 10 min) was 1198.325 rfu and the “BODIPY uptake, Day 0” value (3T3-L1 cells [7]; incubation 30 min) was 510.3125 rfu. The “BODIPY uptake, Day 8” value (3T3-L1 cells [7]; incubation 30 min) was 18518.67 rfu, the “BODIPY uptake, Day 0” value (3T3-L1 cells [7]; incubation 120 min) was 686.9375 rfu and the “BODIPY uptake, Day 8” value (3T3-L1 cells [7]; incubation 120 min) was 46363 rfu. For the same compound, the “BODIPY uptake, Day 0” value (3T3-L1 cells [7]; incubation 240 min) was 1104.125 rfu, the “BODIPY uptake, Day 8” value (3T3-L1 cells [7]; incubation 240 min) was 49153.33 rfu and the “Fatty acid uptake, Fluor. Units” value (3T3-L1 cells [7]; Day 8 in differentiation inducing medium, dye 120 minutes) was 18685 Fluor. Units. The “Uptake by 3T3-L1 cells, Day 9” value (3T3-L1 cells [1]) was 56869 ± 2093 Raw Fluorescent Units, the “Uptake by 3T3-L1 cells, Day 0” value (3T3-L1 cells [1]) was 404 ± 21 Raw Fluorescent Units and the “Fatty acid uptake, Fluor. Units” value (3T3-L1 cells [1]; Day 0 in differentiation inducing medium) was 1166.67 Fluor. Units. For the same compound, the “Fatty acid uptake, Fluor. Units” value (3T3-L1 cells [1]; Day 2 in differentiation inducing medium) was 5006.75 Fluor. Units, the “Fatty acid uptake, Fluor. Units” value (3T3-L1 cells [1]; Day 4 in differentiation inducing medium) was 10884.5 Fluor. Units and the “Fatty acid uptake, Fluor. Units” value (3T3-L1 cells [1]; Day 6 in differentiation inducing medium) was 15441.8 Fluor. Units. For the same compound, the “Fatty acid uptake, Fluor. Units” value (3T3-L1 cells [1]; Day 10 in differentiation inducing medium) was 31645.8 Fluor. Units and the “Fatty acid uptake, Fluor. Units” value (3T3-L1 cells [1]; Day 12 in differentiation inducing medium) was 37910 Fluor. Units.
`O=C([O-])CCCCCCCCCCCc1ccc2n1[B-](F)(F)[N+]1=C(c3cccs3)C=CC1=C2.[H+]` [BODIPY 558/568 C12, 4,4-difluoro-5-(2-thienyl) 1-4-bora-3a,4a-diaza-s-indacene-3-dodecanoic acid] was tested, and the “Uptake by 3T3-L1 cells, Day 9” value (3T3-L1 cells [1]) was 3622 ± 641 Raw Fluorescent Units and the “Uptake by 3T3-L1 cells, Day 0” value (3T3-L1 cells [1]) was 116 ± 9 Raw Fluorescent Units.
